Data taken from PMC2778857 (Biochemistry, 2009).
Changes are numbered by the printed parent chain.

Tests used:
Experiment in all cases: titration with apoprotein, FMN absorbance or fluorescence
[1] = target: T1, FMN-binding domain (FMN domain) of flavocytochrome P450BM-3 (BM3) (Priestia megaterium, UniProt P14779, G539A/N538A)
T1 sequence (P14779 472-650 N538A/G539A): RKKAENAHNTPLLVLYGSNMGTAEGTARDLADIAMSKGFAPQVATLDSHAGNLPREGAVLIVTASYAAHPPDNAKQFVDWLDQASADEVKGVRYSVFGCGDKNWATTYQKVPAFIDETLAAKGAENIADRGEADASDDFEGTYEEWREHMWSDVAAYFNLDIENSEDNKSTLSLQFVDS

[2] = target: T2, FMN-binding domain (FMN domain) of flavocytochrome P450BM-3 (BM3) (Priestia megaterium, UniProt P14779, P542A)
T2 sequence (P14779 472-650 P542A): T1 sequence (P14779 472-650 N538A/G539A) with A67N, A68G, P71A

[3] = target: T3, FMN-binding domain (FMN domain) of flavocytochrome P450BM-3 (BM3) (Priestia megaterium, UniProt P14779, N538A)
T3 sequence (P14779 472-650 N538A): T1 sequence (P14779 472-650 N538A/G539A) with A68G

[4] = target: T4, FMN-binding domain (FMN domain) of flavocytochrome P450BM-3 (BM3) (Priestia megaterium, UniProt P14779, G539A/N538G)
T4 sequence (P14779 472-650 N538G/G539A): T1 sequence (P14779 472-650 N538A/G539A) with A67G

[5] = target: T5, FMN-binding domain (FMN domain) of flavocytochrome P450BM-3 (BM3) (Priestia megaterium, UniProt P14779, Y537R)
T5 sequence (P14779 472-650 Y537R): T1 sequence (P14779 472-650 N538A/G539A) with Y66R, A67N, A68G

[6] = target: T6, FMN-binding domain (FMN domain) of flavocytochrome P450BM-3 (BM3) (Priestia megaterium, UniProt P14779, P541A)
T6 sequence (P14779 472-650 P541A): T1 sequence (P14779 472-650 N538A/G539A) with A67N, A68G, P70A

[7] = target: T7, FMN-binding domain (FMN domain) of flavocytochrome P450BM-3 (BM3) (Priestia megaterium, UniProt P14779, N538G)
T7 sequence (P14779 472-650 N538G): T1 sequence (P14779 472-650 N538A/G539A) with A67G, A68G

[8] = target: T8, FMN-binding domain (FMN domain) of flavocytochrome P450BM-3 (BM3) (Priestia megaterium, UniProt P14779)
T8 sequence (P14779 472-650): T1 sequence (P14779 472-650 N538A/G539A) with A67N, A68G

[9] = target: T9, FMN-binding domain (FMN domain) of flavocytochrome P450BM-3 (BM3) (Priestia megaterium, UniProt P14779, Y537H)
T9 sequence (P14779 472-650 Y537H): T1 sequence (P14779 472-650 N538A/G539A) with Y66H, A67N, A68G

SMILES: Cc1cc2nc3c(=O)[nH]c(=O)nc-3n(C[C@H](O)[C@H](O)[C@H](O)COP(=O)(O)O)c2cc1C [FMN]
- Kd [1]: 1000 ± 200 nM
- Kd [2]: 140 ± 33 nM
- Kd [3]: 30 ± 5 nM
- Kd [4]: 400 ± 100 nM
- Kd [5]: 2100 ± 600 nM
- Kd [6]: 43 ± 7 nM
- Kd [7]: 30 ± 5 nM
- Kd [8]: 41 ± 18 nM
- Kd [9]: 350 ± 72 nM
